# Source: patent US20190119282A1, “IMIDAZOPYRIDAZINES USEFUL AS INHIBITORS OF THE PAR-2 SIGNALING PATHWAY” (Vertex Pharmaceuticals Incorporated, priority 2013, published 2019)
# Legend:
# [1] = system: UTP-stimulated Ca2+ response in HT-29 cells; test: Ca FLIPR TETRA assay, ANTAGONIST mode, stimulation with 0.6 μM UTP; assay type: cell-based, human; conditions: Homo sapiens, HT-29 cells
# Summary of the method: (§1)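 FLIPR Tetra Ca2+ read-out in HT-29 cells, calcium 5 dye. Compound preincubation 30 min r.t., with an initial read for agonist activity. Final activator levels: SLIGKV 8 μM, thrombin 1 U/mL, trypsin 3.1 U/mL, UTP 0.6 μM.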
# [2] = molecular target: T1, PAR2 (HT-29 cells, SLIGKV activation) (Homo sapiens, UniProt P55085); test: Ca FLIPR TETRA assay, ANTAGONIST mode, stimulation with 8 μM SLIGKV; assay type: cell-based; conditions: HT-29 cells
# T1 construct: host or cells: HT-29 cells
# T1 sequence (P55085 26-397): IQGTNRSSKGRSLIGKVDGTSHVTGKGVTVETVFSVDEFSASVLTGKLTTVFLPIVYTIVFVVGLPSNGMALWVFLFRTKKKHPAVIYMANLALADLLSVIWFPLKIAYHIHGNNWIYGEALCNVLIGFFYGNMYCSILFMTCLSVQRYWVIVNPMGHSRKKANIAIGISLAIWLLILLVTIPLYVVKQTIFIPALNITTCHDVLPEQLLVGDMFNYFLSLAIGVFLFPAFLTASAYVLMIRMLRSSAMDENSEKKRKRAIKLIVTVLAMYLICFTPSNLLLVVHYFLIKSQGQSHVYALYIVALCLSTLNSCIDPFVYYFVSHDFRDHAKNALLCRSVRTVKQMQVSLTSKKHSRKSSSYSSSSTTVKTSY
# Summary of the method: as §1
# [3] = system: Thrombin-stimulated Ca2+ response in HT-29 cells; test: Ca FLIPR TETRA assay, ANTAGONIST mode, stimulation with 1 U/mL Thrombin; assay type: cell-based, human; conditions: Homo sapiens, HT-29 cells
# Summary of the method: as §1
# [4] = molecular target: T2, PAR2 (HT-29 cells, trypsin activation) (Homo sapiens, UniProt P55085); test: Ca FLIPR TETRA assay, ANTAGONIST mode, stimulation with 3.1 U/mL trypsin; assay type: cell-based; conditions: HT-29 cells
# T2 construct: host or cells: HT-29 cells
# T2 sequence (P55085 26-397): T1 sequence (P55085 26-397)
# Summary of the method: as §1
# [5] = antagonist mode, stimulation with 0.6 μM UTP
# [6] = antagonist mode, stimulation with 8 μM SLIGKV
# [7] = antagonist mode, stimulation with 1 U/mL Thrombin
# [8] = antagonist mode, stimulation with 3.1 U/mL trypsin
# [9] = stimulation with 1 U/mL Thrombin
# [10] = stimulation with 3.1 U/mL trypsin
Compound,"IC50 [1, 5]","IC50 [2, 6]","IC50 [3, 7]","IC50 [4, 8]",further results
"CC(C)(O)c1cc(-c2ccc(F)cc2)nn2cc(C(=O)N3CCNC(=O)C3(C)C)nc12 [Compound I-184, 4-[6-(4-fluorophenyl)-8-(1-hydroxy-1-methyl-ethyl)imidazo[1,2-b]pyridazine-2-carbonyl]-3,3-dimethyl-piperazin-2-one]",1950 nM,125 nM,1450 nM,182 nM,–
CC(C)c1cc(-c2ccc(F)c(C3CC3)c2)nn2cc(C(=O)N3CCNC(=O)C3(C)C)nc12 [Compound I-476],> 1000 nM,660 nM,> 1000 nM,965 nM,–
CC(C)(C)c1cc(-c2ccc(F)cc2)nn2cc(C(=O)N3CCN(C(=O)c4ccn[nH]c4=O)CC3(C)C)nc12 [Compound I-356],> 1000 nM,28 nM,> 1000 nM,15 nM,–
Cc1ncc(C(=O)N2CCN(C(=O)c3cn4nc(-c5ccc(C)c(F)c5)cc(C(C)(C)C)c4n3)C(C)(C)C2)[nH]1 [Compound I-431],> 1000 nM,1.4 nM,> 1000 nM,1.6 nM,–
CC(C)c1cc(-c2ccc(F)cc2)nn2cc(C(=O)N3CCN(C(=O)c4cccnn4)CC3(C)C)nc12 [Compound I-307],> 1000 nM,52.8 nM,> 1000 nM,42 nM,–
CC(C)c1cc(-c2ccc(F)cc2)nn2cc(C(=O)N3CCN(C(=O)C(O)C(C)C)CC3(C)C)nc12 (stereo not shown) [Compound I-176],–,–,–,–,"IC50 ([1]; stimulation with 0.6 μM UTP): 17000 nM; IC50 ([2]; stimulation with 8 μM SLIGKV): 6 nM; IC50 [3, 9]: 14000 nM; IC50 [4, 10]: 11 nM"
CC(C)c1cc(-c2cccc(C(F)(F)F)c2)nn2cc(C(=O)N3CCN(C(=O)C(C)(C)O)CC3(C)C)nc12 [Compound I-217],> 1000 nM,205 nM,> 1000 nM,545 nM,–
CC1(C)CN(C(=O)C2CC(O)(C(F)(F)F)C2)CCN1C(=O)c1cn2nc(-c3ccc(F)cc3)cc(C(F)(F)F)c2n1 (stereo not shown) [Compound I-272],> 1000 nM,1.5 nM,> 1000 nM,2.5 nM,–
Cc1nc(C(=O)N2CCN(C(=O)c3cn4nc(-c5ccc(F)cc5)cc(C(C)(C)C)c4n3)C(C)(C)C2)nn1COP(=O)(O)O [Compound I-485],> 1000 nM,97 nM,> 1000 nM,235 nM,–
CC(C)c1cc(-c2ccc(F)cc2)nn2cc(C(=O)N3CCN(C(=O)c4c[nH]cn4)CC3(C)C)nc12 [Compound I-326],> 1000 nM,17 nM,> 1000 nM,12 nM,–
Cc1n[nH]cc1C(=O)N1CCN(C(=O)c2cn3nc(-c4ccc(F)cc4)cc(C(C)C)c3n2)C(C)(C)C1 [Compound I-304],> 1000 nM,40.3 nM,> 1000 nM,54.3 nM,–
Cc1ccc(-c2cc(C(C)C)c3nc(C(=O)N4CCN(C(=O)c5ccn[nH]5)CC4(C)C)cn3n2)cc1 [Compound I-255],> 1000 nM,3.6 nM,> 1000 nM,3.8 nM,–
Cc1ccc(-c2cc(C(C)C)c3nc(C(=O)N4CCN(C(=O)C(C)(C)O)CC4(C)C)cn3n2)cc1 [Compound I-218],> 1000 nM,24.8 nM,> 1000 nM,39.8 nM,–
Cc1cccc(-c2cc(C(C)C)c3nc(C(=O)N4CCN(C(=O)C(C)(C)O)CC4(C)C)cn3n2)c1 [Compound I-216],> 1000 nM,108 nM,> 1000 nM,190 nM,–
C[C@H]1CN(C(=O)c2cn3nc(-c4ccc(F)cc4)cc(C(F)(F)F)c3n2)CCN1C(=O)C(O)c1cccnc1 (stereo partly shown) [Compound I-100],–,–,–,–,"IC50 ([1]; stimulation with 0.6 μM UTP): 48000 nM; IC50 ([2]; stimulation with 8 μM SLIGKV): 200 nM; IC50 [3, 9]: 43000 nM; IC50 [4, 10]: 3000 nM"
CC(C)(C)c1cc(-c2ccc(F)cc2)nn2cc(C(=O)N3CCN(C4CC4)C(=O)C3(C)C)nc12 [Compound I-206],> 1000 nM,0.8 nM,> 1000 nM,0.8 nM,–
CC(C)(C)c1cc(-c2ccc(F)c(Cl)c2)nn2cc(C(=O)N3CCN(C(=O)[C@H]4CC[C@H](C(=O)O)CC4)CC3(C)C)nc12 [Compound I-488],> 1000 nM,4.2 nM,> 1000 nM,4.2 nM,–

Compound,"IC50 [1, 5]","IC50 [2, 6]","IC50 [3, 7]","IC50 [4, 8]",further results
COC(=O)[C@H]1CC[C@@H](C(=O)N2CCN(C(=O)c3cn4nc(-c5ccc(Br)cc5)cc(C(C)(C)C)c4n3)C(C)(C)C2)CC1 [Compound I-520],> 1000 nM,1 nM,> 1000 nM,1 nM,–
CC(C)(C)c1cc(-c2ccc(F)c(Cl)c2)nn2cc(C(=O)N3CCN(C(=O)C4CC(C(=O)O)C4)CC3(C)C)nc12 (stereo not shown) [Compound I-486],2180 nM,1.7 nM,4150 nM,2.1 nM,–
Cc1cc(-c2cc(C(C)(C)C)c3nc(C(=O)N4CCN(C(=O)c5ccn[nH]5)CC4(C)C)cn3n2)ccc1F [Compound I-381],> 1000 nM,1.3 nM,> 1000 nM,1.2 nM,–
CC(C)(C)c1cc(C2CCC(F)(F)CC2)nn2cc(C(=O)N3CCN(c4c[nH]cn4)C(=O)C3(C)C)nc12 [Compound I-430],> 1000 nM,16.3 nM,> 1000 nM,23.8 nM,–
CC(C)c1cc(-c2ccc(F)cc2)nn2cc(C(=O)N3CCN(C(=O)C(C)(C)NC(=O)OCc4ccccc4)[C@@H](C)C3)nc12 [Compound I-151],–,–,–,–,"IC50 ([1]; stimulation with 0.6 μM UTP): > 50000 nM; IC50 ([2]; stimulation with 8 μM SLIGKV): 63 nM; IC50 [3, 9]: > 50000 nM; IC50 [4, 10]: 160 nM"
CC(C)(C)c1cc(-c2ccc(C(F)(F)F)cc2)nn2cc(C(=O)N3CCN(c4c[nH]cn4)C(=O)C3(C)C)nc12 [Compound I-358],> 1000 nM,11.3 nM,> 1000 nM,4.4 nM,–
CC(C)(C)c1cc(-c2ccc(F)cc2)nn2cc(C(=O)N3CCN(c4cc[nH]n4)C(=O)C3(C)C)nc12 [Compound I-471],> 1000 nM,0.8 nM,905 nM,1.6 nM,–
"CC(C)c1cc(-c2ccc(F)cc2)nn2cc(C(=O)N3CCN(C(=O)OC(C)(C)C)CC34COC4)nc12 [Compound I-23, tert-butyl 5-[6-(4-fluorophenyl)-8-isopropyl-imidazo[1,2-b]pyridazine-2-carbonyl]-2-oxa-5,8-diazaspiro[3.5]nonane-8-carboxylate]",–,–,–,–,"IC50 ([1]; stimulation with 0.6 μM UTP): > 50000 nM; IC50 ([2]; stimulation with 8 μM SLIGKV): 130 nM; IC50 [3, 9]: > 50000 nM; IC50 [4, 10]: 300 nM"
Cc1cc(C(=O)N2CCN(C(=O)c3cn4nc(-c5ccc(F)c(C)c5)cc(C(C)C)c4n3)C(C)(C)C2)[nH]n1 [Compound I-341],> 1000 nM,2.1 nM,> 1000 nM,1.7 nM,–
CC(C)c1cc(-c2ccc(C(F)F)cc2)nn2cc(C(=O)N3CCNC(=O)C3(C)C)nc12 [Compound I-300],> 1000 nM,27.7 nM,> 1000 nM,26.5 nM,–
CC(C)c1cc(-c2ccc(F)cc2)nn2cc(C(=O)N3CCN(C#N)C(=O)C3(C)C)nc12 [Compound I-274],> 1000 nM,2.6 nM,> 1000 nM,4.6 nM,–
CC(C)(C)c1cc(-c2ccc(F)c(Cl)c2)nn2cc(C(=O)N3CCN(C(=O)c4ccn[nH]4)CC3(C)C)nc12 [Compound I-459],> 1000 nM,1 nM,> 1000 nM,1.5 nM,–
"CCc1cc(-c2ccc(F)cc2)nn2cc(C(=O)N3CCN(C(=O)OC(C)(C)C)CC3(C)C)nc12 [Compound I-4, tert-Butyl 4-[8-ethyl-6-(4-fluorophenyl)imidazo[1,2-b]pyridazine-2-carbonyl]-3,3-dimethyl-piperazine-1-carboxylate]",–,–,–,–,"IC50 ([1]; stimulation with 0.6 μM UTP): 17000 nM; IC50 ([2]; stimulation with 8 μM SLIGKV): 3 nM; IC50 [3, 9]: 12000 nM; IC50 [4, 10]: 16 nM"
CC(C)(C)c1cc(-c2ccc(Cl)cc2)nn2cc(C(=O)N3CCN(C(=O)[C@H]4C[C@H](C(=O)O)C4)CC3(C)C)nc12 [Compound I-570],–,–,–,–,"IC50 ([1]; antagonist mode, 0.6 μM UTP): > 1000 nM; IC50 ([2]; antagonist mode, 8 μM SLIGKV): 1.6 nM; IC50 ([3]; antagonist mode, 1 U/mL Thrombin): > 1000 nM; IC50 ([4]; antagonist mode, 3.1 U/mL trypsin): 2.2 nM"
CC(C)c1cc(-c2ccc(F)cc2)nn2cc(C(=O)N3CCN(C(=O)[C@H](O)CC(C)(C)C)[C@@H](C)C3)nc12 [Compound I-97],–,–,–,–,"IC50 ([1]; stimulation with 0.6 μM UTP): > 5000 nM; IC50 ([2]; stimulation with 8 μM SLIGKV): 0.7 nM; IC50 [3, 9]: > 5000 nM; IC50 [4, 10]: 0.6 nM"
Cc1ccc(-c2cc(C(C)C)c3nc(C(=O)N4CCN(C(=O)[C@H]5C[C@](O)(C(F)(F)F)C5)CC4(C)C)cn3n2)cc1 [Compound I-254],> 1000 nM,0.2 nM,> 1000 nM,0.3 nM,–
CC1(C)CN(C(=O)c2ncc[nH]2)CCN1C(=O)c1cn2nc(-c3ccc(F)cc3)cc(C(F)(F)F)c2n1 [Compound I-270],> 1000 nM,47.5 nM,> 1000 nM,71 nM,–
